Reference: patent US20240342186A1, “PYRIDINE DERIVATIVES WITH N-LINKED CYCLIC SUBSTITUENTS AS cGAS INHIBITORS” (Boehringer Ingelheim International GmbH, priority 2021, published 2024)
Read-outs that look alike come from different tables or passages of the source.

Legend:
[1] = target: cGAS (Homo sapiens (Human), UniProt Q8N884); assay: Human cGAS enzyme assay (hcGAS IC50, in vitro), cGAMP formation by RapidFire MS; format: biochemical;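 further: enzyme activated by 45 bp dsDNA with GTP and ATP (30 µM each), 60 min compound pre-incubation then 90 min reaction, cGAMP relative to cyclic-di-GMP internal standard, 8-point dilutions up to 10 µM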
[2] = tested on: cellular cGAS activity in baculovirus-stimulated THP1-Dual cells (IRF dependent Lucia luciferase reporter); assay: Human cGAS cell assay: inhibition of IFN induction in virus-stimulated THP1 cells (THP1(vir) IC50); format: cell-based; settings: Homo sapiens, THP1-Dual, read-out: THP1(vir) IC50
Summary of the method: (§1)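 THP1-Dual cells with IRF-dependent Lucia luciferase reporter, stimulated by empty baculovirus (dsDNA delivery activating cGAS) or, for the counter assay, directly by cGAMP. 5000 cells/well, 8 concentrations from 10 μM top, 1% DMSO, 18 h at 37 °C; luminescence read, IC50 by 4-parameter logistic fit versus unstimulated low control.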

[3] = tested on: cGAMP-stimulated THP1-Dual cells (pathway directly downstream of cGAS); assay: cGAMP stimulated counter cell assay: inhibition of IFN induction in cGAMP-stimulated THP1 cells (THP1(cGAMP) IC50); format: cell-based, human; settings: for IC50: Homo sapiens, THP1-Dual, read-out: THP1(cGAMP) IC50 (converted); for Ratio THP1(cGAMP) IC50 / THP1(vir) IC50: selectivity for cGAS inhibition
Summary of the method: as §1

[4] = tested on: cellular cGAS activity in dsDNA-stimulated human whole blood; assay: Human whole blood assay (hWB IC50): IFNα2α production after dsDNA transfection; format: cell-based
Summary of the method: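 Citrated blood from healthy donors preincubated 60 min at room temperature with compound (top 10 µM, ~1:5 steps, 0.1% DMSO), then transfected with dsDNA/Fugene and incubated 22 h at 37 °C. Plasma IFNα2α measured by MSD immunoassay; IC50 from 4-parameter fit of % control (stimulated vs unstimulated).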

[5] = biochemical (in vitro) cGAS inhibition
[6] = inhibition of IFN induction in virus-stimulated THP1 cells
[7] = inhibition of IFN induction in cGAMP-stimulated THP1 cells
[8] = inhibition of IFN induction in dsDNA-stimulated human whole blood

cGAS, sequence (Q8N884 whole entry): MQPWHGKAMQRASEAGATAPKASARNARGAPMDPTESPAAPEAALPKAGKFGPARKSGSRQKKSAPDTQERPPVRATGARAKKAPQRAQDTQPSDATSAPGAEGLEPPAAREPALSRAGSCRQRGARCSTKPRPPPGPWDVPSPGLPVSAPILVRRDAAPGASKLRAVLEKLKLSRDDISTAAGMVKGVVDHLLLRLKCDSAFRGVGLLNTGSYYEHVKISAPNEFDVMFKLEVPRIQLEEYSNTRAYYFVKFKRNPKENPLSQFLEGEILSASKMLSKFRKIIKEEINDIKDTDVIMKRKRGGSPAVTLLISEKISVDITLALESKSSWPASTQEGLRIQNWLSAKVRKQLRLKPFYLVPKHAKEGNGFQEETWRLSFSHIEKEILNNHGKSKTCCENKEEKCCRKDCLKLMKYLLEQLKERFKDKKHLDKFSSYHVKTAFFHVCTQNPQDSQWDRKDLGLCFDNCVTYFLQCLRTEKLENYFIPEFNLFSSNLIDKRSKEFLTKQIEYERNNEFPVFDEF

SMILES | IC50 [1, 5] [µM] | IC50 [2, 6] [µM] | IC50 [3, 7] [µM] | Ratio THP1(cGAMP) IC50 / THP1(vir) IC50 [3] | IC50 [4, 8] [µM] | IC50 ([1]; biochemical (in vitro), human cGAS, 45 bp dsDNA, GTP/ATP) [µM] | IC50 ([2]; virus-stimulated THP1 cells, IFN induction) [µM] | IC50 ([3]; cGAMP-stimulated THP1 cells, counter assay) [µM] | IC50 ([4]; dsDNA-stimulated human whole blood, IFN induction) [µM]
CCn1cc(-c2cnc(O[C@H]3C[C@@H](C(=O)O)N(c4nc(C(F)(F)F)nc5c4oc4ccccc45)C3)c(N3CCOC[C@@H]3C)c2)cn1 [Example 3.07] | 0.017 | 0.748 | 12.3 | 16 | 1.62 |  |  |  | 
C#Cc1cnc(O[C@H]2C[C@@H](C(=O)O)N(c3nc(C(F)(F)F)nc4c3oc3cc(CC)ccc34)C2)c(N2CCOC3(COC3)[C@@H]2C)c1 [Example 2.09] | 0.006 | 0.031 | 5.18 | 166 | 0.037 |  |  |  | 
Cc1cnc(-c2cnc(O[C@H]3C[C@@H](C(=O)O)N(c4nc(C(F)(F)F)nc5c4oc4ccccc45)C3)c(N3CCOC4(COC4)[C@@H]3C)c2)cn1 [Example 7.04] | 0.012 | 0.002 | > 10 | 4084 | 0.022 |  |  |  | 
CNc1nccc(-c2cnc(O[C@H]3C[C@@H](C(=O)O)N(c4nc(C(F)F)nc5c4oc4ccccc45)C3)c(N3CCOC4(COC4)[C@@H]3C)c2)c1OC [Example 4.03] | 0.008 | 0.199 | 7.87 | 40 | 0.078 |  |  |  | 
C[C@@H]1N(c2cc(Cl)cnc2O[C@H]2C[C@@H](C(=O)O)N(c3nc(C(F)(F)F)nc4c3oc3ccccc34)C2)CCOC12COC2 [Example 1.13] | 0.004 | 0.04 | 16.4 | 413 | 0.102 |  |  |  | 
C[C@@H]1N(c2cc(-c3ccnc(C#N)c3)cnc2O[C@H]2C[C@@H](C(=O)O)N(c3nc(C(F)F)nc4c3oc3ccccc34)C2)CCOC12COC2 [Example 3.21] | 0.004 | 0.024 | 11.7 | 483 | 0.055 |  |  |  | 
C#Cc1cnc(O[C@H]2C[C@@H](C(=O)O)N(c3nc(C(F)(F)F)nc4c3oc3ccccc34)C2)c(N2CCOC[C@@H]2C)c1 [Example 1.30] | 0.003 | 0.159 | 22.1 | 139 | 0.08 |  |  |  | 
C#Cc1cnc(O[C@H]2C[C@@H](C(=O)O)N(c3nc(C(C)(F)F)nc4c3oc3ccccc34)C2)c(N2CCOC3(COC3)[C@H]2C)c1 [Example 1.15] | 0.075 | 0.332 | 26.2 | 79 | 0.702 |  |  |  | 
C[C@H]1COCCN1c1cc(Cl)cnc1O[C@H]1C[C@@H](C(=O)O)N(c2nc(C(F)F)nc3c2oc2ccccc23)C1 [Example 1.27] | 0.004 | 0.516 | > 16.6 | >32 | 0.221 |  |  |  | 
COc1cc(-c2cnc(O[C@H]3C[C@@H](C(=O)O)N(c4nc(C(F)(F)F)nc5c4oc4ccccc45)C3)c(N3CCOC[C@@H]3C)c2)ccn1 [Example 3.05] | 0.014 | 0.523 | 6.71 | 13 | 1.83 |  |  |  | 
C[C@@H]1N(c2cc(-c3cccc(C(N)=O)c3)cnc2O[C@H]2C[C@@H](C(=O)O)N(c3nc(C(F)F)nc4c3oc3ccccc34)C2)CCOC12COC2 [Example 3.24] | 0.006 | 0.057 | 19.2 | 336 | 0.322 |  |  |  | 
CNCc1cccc(-c2cnc(O[C@H]3C[C@@H](C(=O)O)N(c4nc(C(F)(F)F)nc5c4oc4ccccc45)C3)c(N3CCOC4(COC4)[C@@H]3C)c2)c1 [Example 3.22] | 0.016 | 0.177 | 8.91 | 50 | 0.07 |  |  |  | 
COC(=O)[C@@H]1C[C@H](Oc2ncc(-c3cccnc3OC)cc2N2CCOC3(COC3)[C@@H]2C)CN1c1nc(C(F)(F)F)nc2c1oc1ccccc12 [Example P04] |  |  |  |  |  | > 9.95 | 0.067 | > 16.6 | 2.75
C#Cc1cnc(O[C@H]2C[C@@H](C(=O)O)N(c3nc(C(F)(F)F)nc4c3oc3ccccc34)C2)c(N2CCOCC2)c1 [Example 2.02] | 0.007 | 0.752 | > 16.6 | >22 | 1.03 |  |  |  | 
